In BindingDB's records for doi:10.1016/s0960-894x(99)00444-8 (The University of Montana, 1999):

Biological target: Vesicular glutamate transporter 1 (Rattus norvegicus) (UniProt Q62634)
Test: Compound was evaluated for the binding affinity against glutamate vesicular transport (GVT)

Chain of Vesicular glutamate transporter 1 (Rattus norvegicus) (Q62634 whole entry, looked up): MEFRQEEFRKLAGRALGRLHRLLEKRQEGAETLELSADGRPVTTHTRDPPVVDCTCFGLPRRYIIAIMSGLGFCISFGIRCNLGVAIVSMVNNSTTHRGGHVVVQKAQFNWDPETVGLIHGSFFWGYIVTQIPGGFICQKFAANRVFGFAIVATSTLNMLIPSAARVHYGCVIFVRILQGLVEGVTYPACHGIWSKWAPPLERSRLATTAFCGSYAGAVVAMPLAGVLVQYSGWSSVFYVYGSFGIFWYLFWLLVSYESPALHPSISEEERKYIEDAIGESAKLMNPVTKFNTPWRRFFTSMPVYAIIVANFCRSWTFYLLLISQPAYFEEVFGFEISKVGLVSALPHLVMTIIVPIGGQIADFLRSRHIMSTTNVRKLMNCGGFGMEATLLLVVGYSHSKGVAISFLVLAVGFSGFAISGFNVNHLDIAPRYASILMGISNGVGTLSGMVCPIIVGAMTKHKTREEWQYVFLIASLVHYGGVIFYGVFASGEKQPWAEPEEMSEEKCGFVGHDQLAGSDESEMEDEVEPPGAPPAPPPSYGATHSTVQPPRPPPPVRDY

Structure (SMILES): O=C(O)c1cc(C(=O)O)c2cc(OCc3ccccc3)ccc2n1 [6-Benzyloxy-quinoline-2,4-dicarboxylic acid]
- Ki: 204 µM
